Patent US4791215A, “Derivatives of glutamic acid and aspartic acid” (priority 1984, dated 1988)

Key:
[1] = tested on: enkephalinamide (DALA) analgesia; test: Potentiation of DALA (enkephalinamide) analgesia, i.c.v., Tail Flick Test (Experiment 4); format: in vivo, rats; set-up: scale not given here
From the text: Experiment No. 4: Potentiation of the analgesic activities of enkephalins induced by some of the compounds of the invention. […]

[2] = tested on: morphine analgesia; test: Increase in analgesia of morphine, Tail Flick Test (Experiment 1); format: in vivo, rats; details: for M (10-90) ± SE, mean percentage variation of latency: mean 10-90 min; for Power ratio with respect to morphine alone: rat, in vivo
Outline: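 Non-fasted male rats (150-200 g); a tail point is exposed to a 75 °C heat source and latency to tail movement recorded, 8 s cut-off. Readings taken before and 10, 20, 30, 45, 60 and 90 min after analgesic treatment; percentage variation calculated per animal.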

[3] = tested on: endogenous opiates analgesia; test: Analgesic activity of endogenous opiates released by transcutaneous shock, Tail Flick Test (Experiment 3); format: in vivo, rats
Description: Experiment No. 3: Influence of several of the compounds of the invention on the analgesic activities of endogenous opiates released by transcutaneous shock in rats and measured by the Tail Flick Test
The method is that described by Lewis et al. J. Neurosc. 1, 358 […]. Male rats which have not fasted and have a weight of about 200 g are used.
The animals are stressed by the application of a 60 Hz-2.5 mA current to the front leg in pulses of a duration of 1 second every 5 seconds for 20 minutes.
This stress regime induces the release of endogenous opiates.

[4] = tested on: CCK-8 induced contraction of guinea pig gall bladder; test: Anti-CCK activity on gall bladder strips in vitro; details: CCK-8 10 ng/ml
Outline: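 Longitudinal guinea pig gall bladder strips in Krebs at 32 °C, gassed with O2/CO2 95:5, were contracted with 10 ng/ml CCK-8. Isometric force was recorded across several compound concentrations, and ED50 was taken as the μg/ml concentration antagonising 50% of the CCK contraction.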

[5] = tested on: tolerance induced by morphine; test: Antagonism to development of tolerance to repeated morphine HCl, Tail Flick Test (Experiment 5)
Description: Experiment No. 5: Antagonism of several products of the invention to the development of tolerance induced in rats by the repeated administration of morphine HCl.
Several of the compounds of the invention were examined to determine their possible capacity to antagonise the development of tolerance induced by morphine. Groups of 6 male rats having a weight of about 200-250 grams were used.
At intervals of 24 hours from the first treatment (time 0) each animal (except the control group treated physiologically) received 5 mg/kg of morphine hydrochloride i.p. together with 10 mg/kg i.p. of the compounds indicated (with the exception of the group treated solely with morphine).
The determination of the pain threshold was effected 15', 30', 45' and 60' from the treatment by the Tail Flick Test.

[6] = 10', compound 10 mg/kg i.p. + morphine 2 mg/kg
[7] = 20', compound 10 mg/kg i.p. + morphine 2 mg/kg
[8] = 30', compound 10 mg/kg i.p. + morphine 2 mg/kg
[9] = 45', compound 10 mg/kg i.p. + morphine 2 mg/kg
[10] = 60', compound 10 mg/kg i.p. + morphine 2 mg/kg
[11] = 90', compound 10 mg/kg i.p. + morphine 2 mg/kg
[12] = compound 10 mg/kg i.p. + morphine 2 mg/kg
[13] = compound 1 mg/kg iv + stress, 5'
[14] = compound 1 mg/kg iv + stress, 10'
[15] = compound 1 mg/kg iv + stress, 15'
[16] = compound 3 mg/kg iv + stress, 5'
[17] = compound 3 mg/kg iv + stress, 10'
[18] = compound 3 mg/kg iv + stress, 15'

**Q.** Which results are given for `CSCC[C@H](NC(=O)[C@H](Cc1ccccc1)NC(=O)CNC(=O)[C@@H](C)NC(=O)[C@@H](N)Cc1ccc(O)cc1)C(N)=O` [DALA, D-ala-methionine-enkephalinamide, reference compound]?
**A.** analgesic activity, Tail Flick ([1]; DALA 10 μg/kg ICV alone, 10'): 21.9; analgesic activity, Tail Flick ([1]; DALA 10 μg/kg ICV alone, 20'): 25.9; analgesic activity, Tail Flick ([1]; DALA 10 μg/kg ICV alone, 30'): 26.2; analgesic activity, Tail Flick ([1]; DALA 10 μg/kg ICV alone, 45'): 26.0; analgesic activity, Tail Flick ([1]; DALA 10 μg/kg ICV alone, 60'): 7.3; analgesic activity, Tail Flick ([1]; DALA 10 μg/kg ICV alone, 90'): 5.0; MEAN analgesic activity, Tail Flick ([1]; DALA 10 μg/kg ICV alone): 18.7; analgesic activity, Tail Flick ([1]; DALA 10 mg/kg (ICV) as printed, alone, 10'): 4.1; analgesic activity, Tail Flick ([1]; DALA 10 mg/kg (ICV) as printed, alone, 20'): 6.24; analgesic activity, Tail Flick ([1]; DALA 10 mg/kg (ICV) as printed, alone, 30'): 9.19; analgesic activity, Tail Flick ([1]; DALA 10 mg/kg (ICV) as printed, alone, 45'): 8.29; analgesic activity, Tail Flick ([1]; DALA 10 mg/kg (ICV) as printed, alone, 60'): 6.20; analgesic activity, Tail Flick ([1]; DALA 10 mg/kg (ICV) as printed, alone, 90'): 10.56; MEAN analgesic activity, Tail Flick ([1]; DALA 10 mg/kg (ICV) as printed, alone): 7.51

**Q.** For `CCCN(CCC)C(=O)C(CCC(=O)O)NC(=O)c1ccc(C(F)(F)F)cc1` (centres unmarked) [Compound C-39], which “percentage variation of latency of pain sensation” value [2, 6] is on record?
**A.** 44.9 ± 15%

**Q.** And the “percentage variation of latency of pain sensation” value [2, 7]?
**A.** 100.0 ± 0%

**Q.** And the “percentage variation of latency of pain sensation” value [2, 8]?
**A.** 93.3 ± 7%

**Q.** What about the “percentage variation of latency of pain sensation” value [2, 9] of the same compound?
**A.** 94.4 ± 6%

**Q.** And the “percentage variation of latency of pain sensation” value [2, 10]?
**A.** 85.6 ± 7%

**Q.** And the “percentage variation of latency of pain sensation” value [2, 11]?
**A.** 81.8 ± 10%

**Q.** What about the “M (10-90) ± SE, mean percentage variation of latency” value [2, 12] of the same compound?
**A.** 83.3 ± 20%

**Q.** What about the “Power ratio with respect to morphine alone” value [2] of the same compound?
**A.** 2.79

**Q.** What about the “average latency, Tail Flick” value [3, 13] of the same compound?
**A.** 6.3 ± 0.4 s

**Q.** What about the “average latency, Tail Flick” value [3, 14] of the same compound?
**A.** 5.8 ± 0.38 s

**Q.** And the “average latency, Tail Flick” value [3, 15]?
**A.** 4.04 ± 0.36 s

**Q.** And the “average latency, Tail Flick” value [3, 16]?
**A.** 7.54 ± 0.65 s

**Q.** And the “average latency, Tail Flick” value [3, 17]?
**A.** 5.98 ± 0.41 s

**Q.** What about the “average latency, Tail Flick” value [3, 18] of the same compound?
**A.** 5.08 ± 0.6 s

**Q.** What does the source list for `CC(C)c1ccc(C(=O)NC(CCC(=O)N2CCCCC2)C(=O)O)cc1` (racemic) [Compound D-17]?
**A.** percentage variation of latency of pain sensation [2, 6]: 62.3 ± 15%; percentage variation of latency of pain sensation [2, 7]: 92.9 ± 7%; percentage variation of latency of pain sensation [2, 8]: 100 ± 0%; percentage variation of latency of pain sensation [2, 9]: 100 ± 0%; percentage variation of latency of pain sensation [2, 10]: 100 ± 0%; percentage variation of latency of pain sensation [2, 11]: 100 ± 0%; M (10-90) ± SE, mean percentage variation of latency [2, 12]: 92.5 ± 15%; Power ratio with respect to morphine alone [2]: 3.10; average latency, Tail Flick [3, 13]: 6.18 ± 0.65 s; average latency, Tail Flick [3, 14]: 7.02 ± 0.76 s; average latency, Tail Flick [3, 15]: 5.31 ± 0.55 s; average latency, Tail Flick [3, 16]: 9.08 ± 0.55 s; average latency, Tail Flick [3, 17]: 9.08 ± 0.80 s; average latency, Tail Flick [3, 18]: 6.08 ± 0.98 s; ED50 (concentration antagonising 50% of contracting effect of CCK-8) [4]: > 300 mg/L

**Q.** With `CCCCN(CCCC)C(=O)CCC(NC(=O)c1ccc(C#N)cc1)C(=O)O` [Compound D-8] as the compound, how does the “percentage variation in latency time (Effect %)” value ([5]; compound 10 mg/kg + morphine 5 mg/kg i.p., 24 h) read?
**A.** 43.65%

**Q.** What about the “percentage variation in latency time (Effect %)” value ([5]; compound 10 mg/kg + morphine 5 mg/kg i.p., 48 h) of the same compound?
**A.** 32.80%

**Q.** What about the “percentage variation in latency time (Effect %)” value ([5]; compound 10 mg/kg + morphine 5 mg/kg i.p., 72 h) of the same compound?
**A.** 31.78%

**Q.** And the “percentage variation in latency time (Effect %)” value ([5]; compound 10 mg/kg + morphine 5 mg/kg i.p., 96 h)?
**A.** 35.45%

**Q.** What about the “percentage variation in latency time (Effect %)” value ([5]; compound 10 mg/kg + morphine 5 mg/kg i.p., 120 h) of the same compound?
**A.** 42.08%

**Q.** And the “percentage variation in latency time (Effect %)” value ([5]; compound 10 mg/kg + morphine 5 mg/kg i.p., 144 h)?
**A.** 29.33%

**Q.** And the “percentage variation in latency time (Effect %)” value ([5]; compound 10 mg/kg + morphine 5 mg/kg i.p., 168 h)?
**A.** 19.17%

**Q.** And the “percentage variation in latency time (Effect %)” value ([5]; compound 10 mg/kg + morphine 5 mg/kg i.p., time 0)?
**A.** 47.32%

**Q.** What about the “percentage variation of latency of pain sensation” value [2, 6] of the same compound?
**A.** 29.0 ± 15.0%

**Q.** And the “percentage variation of latency of pain sensation” value [2, 7]?
**A.** 50.9%

**Q.** And the “percentage variation of latency of pain sensation” value [2, 8]?
**A.** 61.4 ± 22.0%

**Q.** What about the “percentage variation of latency of pain sensation” value [2, 9] of the same compound?
**A.** 57.7 ± 18.0%

**Q.** What about the “percentage variation of latency of pain sensation” value [2, 10] of the same compound?
**A.** 52.9 ± 20.0%

**Q.** And the “percentage variation of latency of pain sensation” value [2, 11]?
**A.** 28.3 ± 12.0%

**Q.** What about the “M (10-90) ± SE, mean percentage variation of latency” value [2, 12] of the same compound?
**A.** 46.7 ± 14.4%

**Q.** What about the “Power ratio with respect to morphine alone” value [2] of the same compound?
**A.** 1.56

**Q.** And the “ED50 (concentration antagonising 50% of contracting effect of CCK-8)” value [4]?
**A.** > 200 mg/L

**Q.** Which results are given for `CN1CC[C@]23c4c5ccc(O)c4O[C@H]2[C@@H](O)C=C[C@H]3[C@H]1C5` [Morphine, reference compound]?
**A.** day at which activity reaches level of inactivity (0) ([5]; from the straight lines of regression): fell to 0 on the sixth day of treatment; percentage variation in latency time (Effect %) ([5]; morphine 5 mg/kg i.p. alone, 24 h): 42.09%; percentage variation in latency time (Effect %) ([5]; morphine 5 mg/kg i.p. alone, 48 h): 26.54%; percentage variation in latency time (Effect %) ([5]; morphine 5 mg/kg i.p. alone, 72 h): 19.96%; percentage variation in latency time (Effect %) ([5]; morphine 5 mg/kg i.p. alone, 96 h): 10.79%; percentage variation in latency time (Effect %) ([5]; morphine 5 mg/kg i.p. alone, 120 h): 4.45%; percentage variation in latency time (Effect %) ([5]; morphine 5 mg/kg i.p. alone, 168 h): 2.12%; percentage variation in latency time (Effect %) ([5]; morphine 5 mg/kg i.p. alone, time 0): 58.03%; activity versus controls / morphine group during treatment ([5]; up to 168 hours): not significantly different from the control group; percentage variation of latency of pain sensation ([2]; 10', morphine 2 mg/kg alone): 10.8 ± 4.0%; percentage variation of latency of pain sensation ([2]; 10', morphine 2 mg/kg alone, listed as Morphene): 10.8%; percentage variation of latency of pain sensation ([2]; 20', morphine 2 mg/kg alone): 54.2 ± 17.0%; percentage variation of latency of pain sensation ([2]; 20', morphine 2 mg/kg alone, listed as Morphene): 54.2 ±17%; percentage variation of latency of pain sensation ([2]; 30', morphine 2 mg/kg alone): 46.6 ± 21.0%; percentage variation of latency of pain sensation ([2]; 30', morphine 2 mg/kg alone, listed as Morphene): 46.6 ± 21%; percentage variation of latency of pain sensation ([2]; 45', morphine 2 mg/kg alone): 41.7 ± 16.0%; percentage variation of latency of pain sensation ([2]; 45', morphine 2 mg/kg alone, listed as Morphene): 41.7%; percentage variation of latency of pain sensation ([2]; 60', morphine 2 mg/kg alone): 32.0%; percentage variation of latency of pain sensation ([2]; 60', morphine 2 mg/kg alone, listed as Morphene): 32 ± 17%; percentage variation of latency of pain sensation ([2]; 90', morphine 2 mg/kg alone): -6.4 ± 10.0%; percentage variation of latency of pain sensation ([2]; 90', morphine 2 mg/kg alone, listed as Morphene): -6.4 ± 10%; M (10-90) ± SE, mean percentage variation of latency ([2]; morphine 2 mg/kg alone): 29.8 ± 23.0%; M (10-90) ± SE, mean percentage variation of latency ([2]; morphine 2 mg/kg alone, listed as Morphene): 29.8%
